Source: US20140323501A1, “AMINO-PROPYLENE-GLYCOL DERIVATIVES, PREPARATION METHOD AND PHARMACEUTICAL COMPOSITION AND USE THEREOF” (INSTITUTE OF MATERIA MEDICA, CHINESE ACADEMY OF MEDICAL …, priority 2011, published 2014)

What was measured:
[1] = tested on: lymphocyte proliferation / cytotoxic T lymphocytes; settings: MLR and CTL; background, Fujita et al.; cited from earlier work
[2] = tested on: SD rat peripheral blood lymphocyte counts; experiment: Effect of S1P1 receptor agonists on rat vein (peripheral) blood lymphocyte counts; format: in vivo; settings: 10 mg/Kg intragastric; for LYM 0 h: before administration; for LYM 24 h: 24 h after administration; for compared with 0 h (%) 1 h / compared with 0 h (%) 2 h / compared with 0 h (%) 4 h / compared with 0 h (%) 8 h / compared with 0 h (%) 12 h / compared with 0 h (%) 24 h: lymphocyte count change vs 0 h; for Δ %: largest decrease of lymphocyte count vs 0 h
Protocol: 10 mg of drugs were measured and placed in a mortar. After 4 mL of 5‰ CMC-Na were added, homogenous suspension was prepared in the mortar (one drop of twain-80 was added to help dissolving). Dosage: 10 mg/Kg, dose volume: 0.4 mL/100 g, intragastric administration.
Every medicated group was assigned three rats.
After the experimental animals stable in the clean environment for 24 h, 10 μL of blood was withdrawn via tail vein and diluted into 2 mL of diluents quickly. […] Then the prepared drugs were administered intragastrically to the animals. […] The animals were killed after 24 h.

SD rat heart rate = experiment: Effect of S1P1 receptor agonists on rat heart rate; format: in vivo; design: heart rate 0: unit not given beside the values; settings: for HR delta %: (lowest heart rate postdose − pre-administration)/pre-administration; for heart rate 0.5 h / heart rate 1 h / heart rate 3 h / heart rate 6 h / heart rate 8 h / heart rate 24 h / heart rate pre-administration / heart rate 0: intragastric; for heart rate pre-administration: before administration; for heart rate 0: time 0, before administration
[3] = Table 1, 1 h after administration
[4] = Table 1, 2 h after administration
[5] = Table 1, 4 h after administration
[6] = Table 1, 8 h after administration
[7] = Table 1, 12 h after administration
[8] = Table 2, 0.5 h after administration
[9] = Table 2, 1 h after administration
[10] = Table 2, 3 h after administration
[11] = Table 2, 6 h after administration
[12] = Table 2, 8 h after administration
[13] = Table 2, 24 h after administration

| SMILES | LYM 0 h ([2]; Table 1) | LYM 1 h [2, 3] | LYM 2 h [2, 4] | LYM 0 h ([2]; Table 3) | LYM 1 h ([2]; Table 3, 1 h) | LYM 2 h ([2]; Table 3, 2 h) | LYM 4 h ([2]; Table 3, 4 h) | LYM 6 h ([2]; Table 3) | LYM 8 h ([2]; Table 3, 8 h) | LYM 12 h ([2]; Table 3, 12 h) | LYM 23 h ([2]; Table 3) | Δ % ([2]; Table 3) [%] | Δ % = the percentage of change of rat heart rate before and after administration (SD rat heart rate; Table 4) [%] | heart rate 0.5 h (SD rat heart rate; Table 4, 0.5 h) | heart rate 1 h (SD rat heart rate; Table 4, 1 h) | heart rate 3 h (SD rat heart rate; Table 4, 3 h) | heart rate 6 h (SD rat heart rate; Table 4, 6 h) | heart rate 8 h (SD rat heart rate; Table 4, 8 h) | heart rate 24 h (SD rat heart rate; Table 4, 24 h) | heart rate 0 (SD rat heart rate; Table 4) | also measured |
| --- | --- | --- | --- | --- | --- | --- | --- | --- | --- | --- | --- | --- | --- | --- | --- | --- | --- | --- | --- | --- | --- |
| CCCCCCC(=O)CCCCCC/C=C/C[C@@H](O)[C@H](O)[C@@](N)(CO)C(=O)O [ISP-I, myriocin] |  |  |  |  |  |  |  |  |  |  |  |  |  |  |  |  |  |  |  |  | activity relative to cyclosporine [1]: 10 fold |
| CCCCc1ccc(Oc2ccc(CCC(N)(CO)CO)cc2)cc1 [Syl926] | 5.17 ± 2.12 × 10^9/L | 3.40 ± 0.20 × 10^9/L | 2.57 ± 0.84 × 10^9/L |  |  |  |  |  |  |  |  |  |  |  |  |  |  |  |  |  | LYM 4 h [2, 5]: 2.33 ± 0.90 × 10^9/L; LYM 8 h [2, 6]: 1.40 ± 0.79 × 10^9/L; LYM 12 h [2, 7]: 1.33 ± 0.42 × 10^9/L; LYM 24 h ([2]; Table 1): 1.37 ± 0.31 × 10^9/L; compared with 0 h (%) 1 h ([2]; Table 1, 1 h): 34.19%; compared with 0 h (%) 2 h ([2]; Table 1, 2 h): 50.32%; compared with 0 h (%) 4 h ([2]; Table 1, 4 h): 54.84%; compared with 0 h (%) 8 h ([2]; Table 1, 8 h): 72.90%; compared with 0 h (%) 12 h ([2]; Table 1, 12 h): 74.19%; compared with 0 h (%) 24 h ([2]; Table 1): 73.55%; HR delta % (SD rat heart rate; Table 2): 9.60%; heart rate 0.5 h (SD rat heart rate; [8]): 361.91; heart rate 1 h (SD rat heart rate; [9]): 346.80; heart rate 3 h (SD rat heart rate; [10]): 327.09; heart rate 6 h (SD rat heart rate; [11]): 340.82; heart rate 8 h (SD rat heart rate; [12]): 318.55; heart rate 24 h (SD rat heart rate; [13]): 354.80; heart rate pre-administration (SD rat heart rate; Table 2): 352.85 |
| CCc1nc(-c2ccc(Oc3ccc(CCC(N)(CO)CO)cc3)cc2)co1 [Syl934] | 4.17 ± 0.40 × 10^9/L | 3.60 ± 0.69 × 10^9/L | 2.47 ± 0.23 × 10^9/L |  |  |  |  |  |  |  |  |  |  |  |  |  |  |  |  |  | LYM 4 h [2, 5]: 2.87 ± 0.55 × 10^9/L; LYM 8 h [2, 6]: 1.83 ± 0.68 × 10^9/L; LYM 12 h [2, 7]: 1.17 ± 0.49 × 10^9/L; LYM 24 h ([2]; Table 1): 1.33 ± 0.32 × 10^9/L; compared with 0 h (%) 1 h ([2]; Table 1, 1 h): 13.60%; compared with 0 h (%) 2 h ([2]; Table 1, 2 h): 40.80%; compared with 0 h (%) 4 h ([2]; Table 1, 4 h): 31.20%; compared with 0 h (%) 8 h ([2]; Table 1, 8 h): 56.00%; compared with 0 h (%) 12 h ([2]; Table 1, 12 h): 72.00%; compared with 0 h (%) 24 h ([2]; Table 1): 68.00%; HR delta % (SD rat heart rate; Table 2): 2.4%; heart rate 0.5 h (SD rat heart rate; [8]): 376.00; heart rate 1 h (SD rat heart rate; [9]): 369.10; heart rate 3 h (SD rat heart rate; [10]): 337.86; heart rate 6 h (SD rat heart rate; [11]): 338.09; heart rate 8 h (SD rat heart rate; [12]): 362.55; heart rate 24 h (SD rat heart rate; [13]): 365.89; heart rate pre-administration (SD rat heart rate; Table 2): 346.00 |
| CC(C)c1nc(-c2ccc(Oc3ccc(CCC(N)(CO)CO)cc3)cc2)co1 [Syl935] | 4.77 ± 0.21 × 10^9/L | 3.73 ± 1.23 × 10^9/L | 2.70 ± 1.05 × 10^9/L |  |  |  |  |  |  |  |  |  |  |  |  |  |  |  |  |  | LYM 4 h [2, 5]: 2.77 ± 0.72 × 10^9/L; LYM 8 h [2, 6]: 2.10 ± 0.36 × 10^9/L; LYM 12 h [2, 7]: 1.17 ± 0.31 × 10^9/L; LYM 24 h ([2]; Table 1): 1.73 ± 0.29 × 10^9/L; compared with 0 h (%) 1 h ([2]; Table 1, 1 h): 21.68%; compared with 0 h (%) 2 h ([2]; Table 1, 2 h): 43.36%; compared with 0 h (%) 4 h ([2]; Table 1, 4 h): 41.96%; compared with 0 h (%) 8 h ([2]; Table 1, 8 h): 55.94%; compared with 0 h (%) 12 h ([2]; Table 1, 12 h): 75.52%; compared with 0 h (%) 24 h ([2]; Table 1): 63.64%; HR delta % (SD rat heart rate; Table 2): 15.90%; heart rate 0.5 h (SD rat heart rate; [8]): 387.18; heart rate 1 h (SD rat heart rate; [9]): 405.20; heart rate 3 h (SD rat heart rate; [10]): 384.20; heart rate 6 h (SD rat heart rate; [11]): 352.44; heart rate 8 h (SD rat heart rate; [12]): 373.33; heart rate 24 h (SD rat heart rate; [13]): 398.50; heart rate pre-administration (SD rat heart rate; Table 2): 419.00 |
| NC(CO)(CO)CCc1ccc(Oc2ccc(-c3coc(C4CC4)n3)cc2)cc1 [Syl955] |  |  |  | 7.40 ± 2.18 ×10^9/L | 6.27 ± 0.78 ×10^9/L | 6.87 ± 0.90 ×10^9/L | 6.83 ± 1.26 ×10^9/L | 8.33 ± 2.70 ×10^9/L | 6.53 ± 1.42 ×10^9/L | 2.90 ± 0.95 ×10^9/L | 4.93 ± 1.07 ×10^9/L | 60.81 | 21.72 | 373.00 | 384.75 | 338.25 | 335.50 | 351.50 | 353.90 | 428.63 |  |
| CCCc1nc(-c2ccc(Oc3ccc(C(O)CC(N)(CO)CO)cc3)cc2)co1 (centres unmarked) [Syl961] |  |  |  | 7.90 ± 2.46 ×10^9/L | 8.57 ± 2.55 ×10^9/L | 6.40 ± 0.98 ×10^9/L | 6.33 ± 2.25 ×10^9/L | 5.83 ± 1.88 ×10^9/L | 3.93 ± 1.78 ×10^9/L | 3.67 ± 1.68 ×10^9/L | 2.63 ± 0.31 ×10^9/L | 66.67 | 11.64 | 382.56 | 364.33 | 379.45 | 344.36 | 363.08 | 363.27 | 389.75 |  |
| CC(C)c1nc(-c2ccc(Oc3ccc(C(O)CC(N)(CO)CO)cc3)cc2)co1 (centres unmarked) [Syl962] |  |  |  | 8.03 ± 1.15 ×10^9/L | 5.60 ± 0.90 ×10^9/L | 5.83 ± 1.54 ×10^9/L | 6.27 ± 1.42 ×10^9/L | 3.63 ± 0.38 ×10^9/L | 2.67 ± 0.67 ×10^9/L | 3.10 ± 0.56 ×10^9/L | 2.43 ± 0.59 ×10^9/L | 69.70 | 13.58 | 397.13 | 374.88 | 358.58 | 343.63 | 337.00 | 331.89 | 390.00 |  |
| NC(CO)(CO)CC(O)c1ccc(Oc2ccc(-c3coc(C4CC4)n3)cc2)cc1 (centres unmarked) [Syl963] |  |  |  | 6.90 ± 0.95 ×10^9/L | 4.67 ± 1.50 ×10^9/L | 5.07 ± 2.10 ×10^9/L | 6.67 ± 0.81 ×10^9/L | 4.57 ± 1.29 ×10^9/L | 4.13 ± 0.84 ×10^9/L | 4.20 ± 2.52 ×10^9/L | 2.43 ± 0.91 ×10^9/L | 64.73 | 4.58 | 388.38 | 378.36 | 377.36 | 366.88 | 362.50 | 369.05 | 395.50 |  |
| CCc1nc(-c2ccc(Sc3ccc(CCC(N)(CO)CO)cc3)cc2)co1 [Syl974] |  |  |  | 6.55 ± 0.21 ×10^9/L | 4.63 ± 0.61 ×10^9/L | 5.27 ± 1.27 ×10^9/L | 5.20 ± 0.61 ×10^9/L | 5.77 ± 0.40 ×10^9/L | 4.67 ± 0.61 ×10^9/L | 2.23 ± 0.59 ×10^9/L | 4.47 ± 1.36 ×10^9/L | 65.9 | 4.81 | 382.63 | 388.00 | 396.19 | 368.56 | 364.11 | 363.13 | 381.50 |  |
